Test results published in patent publication US10683294B2, “5-5 fused rings as C5a inhibitors” (CHEMOCENTRYX, INC., priority 2017, dated 2020).

biological target: C5aR (Homo sapiens (Human), UniProt P21730); test: Chemotaxis assay (inhibition of C5aR mediated migration towards C5a); type: cell-based; conditions: inhibition in the chemotaxis assay (Example 14 B.3); U937 or neutrophil cells, 0.03 nM C5a
Procedure: U937 cells are a monocytic cell line which express C5aR, and are available from ATCC (VA). These cells were cultured as a suspension in RPMI-1640 medium supplemented with 2 mM L-glutamine, 1.5 g/L sodium bicarbonate, 4.5 g/L glucose, 10 mM HEPES, 1 mM sodium pyruvate, and 10% FBS. Cells were grown under 5% CO2/95% air, 100% humidity at 37° C. and subcultured twice weekly at 1:6 (cells were cultured at a density range of 1×10^5 to 2×10^6 cells/mL) and harvested at 1×10^6 cells/mL. Prior to assay, cells are treated overnight with 0.5 mM of cyclic AMP (Sigma, Ohio) and washed once prior to use. cAMP treated U937 cells can be used in C5aR ligand binding and functional assays.
Optionally, human or murine neutrophils can be used to assay for compound activity. Neutrophils may be isolated from fresh human blood using density separation and centrifigation. Briefly, whole blood is incubated with equal parts 3% dextran and allowed to separate for 45 minutes. After separation, the top layer is layered on top of 15 mls of Ficoll (15 mls of Ficoll for every 30 mls of blood suspension) and centrifuged for 30 minutes at 400×g with no brake. The pellet at the bottom of the tube is then isolated and resuspended into PharmLyse RBC Lysis Buffer (BD Biosciences, San Jose, Calif.) after which the sample is again centrifuged for 10 minutes at 400×g with brake. The remaining cell pellet is resuspended as appropriate and consists of isolated neutrophils.
Optionally, compounds may be further assayed for their ability to inhibit chemotaxis in cells. Chemotaxis assays are performed using 5 μm pore polycarbonate, polyvinylpyrrolidone-coated filters in 96-well chemotaxis chambers (Neuroprobe; Gaithersburg, Md.) using chemotaxis buffer (Hank's balanced salt solution (HBSS) and 1% FBS). C5aR ligands (i.e., C5a, R&D Systems; Minneapolis, Minn.) are use to evaluate compound mediated inhibition of C5aR mediated migration. Other chemokines (i.e., SDF-1α; R&D Systems; Minneapolis, Minn.) are used as specificity controls. The lower chamber is loaded with 29 μl of chemokine (i.e., 0.03 nM C5a) and varying amounts of compound; the top chamber contains 100,000 U937 or neutrophil cells in 20 μl. The chambers are incubated 1.5 hours at 37° C., and the number of cells in the lower chamber quantified either by direct cell counts in five high powered fields per well or by the CyQuant assay (Molecular Probes), a fluorescent dye method that measures nucleic acid content and microscopic observation.

C5aR, sequence (P21730 whole entry): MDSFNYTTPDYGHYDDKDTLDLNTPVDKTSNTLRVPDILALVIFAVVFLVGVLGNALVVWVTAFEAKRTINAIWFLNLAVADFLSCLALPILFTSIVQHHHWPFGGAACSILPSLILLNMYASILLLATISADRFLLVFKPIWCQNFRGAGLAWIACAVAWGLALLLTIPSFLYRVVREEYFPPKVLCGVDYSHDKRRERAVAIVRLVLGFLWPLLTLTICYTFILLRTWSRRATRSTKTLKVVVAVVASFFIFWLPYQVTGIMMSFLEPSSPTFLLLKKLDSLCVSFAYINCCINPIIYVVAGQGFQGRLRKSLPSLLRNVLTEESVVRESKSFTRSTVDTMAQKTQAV

Row | SMILES | IC50
1 | Cc1cccc(C)c1-n1nc2c(c1-c1ccc3[nH]ncc3c1)CN(C(=O)OC(C)(C)C)C2 [Compound 1.058] | ≥ 0.5 µM
2 | Cc1cccc(C)c1-n1nc2c(c1-c1ccc3[nH]ccc3c1)CN(C(=O)C1CCCC1)C2 [Compound 1.059] | ≥ 0.5 µM
3 | Cc1cccc(C)c1-n1nc2c(c1-c1ccc3[nH]ccc3c1)CN(C(=O)CC(C)(C)C)C2 [Compound 1.061] | ≥ 0.5 µM
4 | Cc1cccc(C)c1-n1nc2c(c1-c1ccc3[nH]ccc3c1)CN(C(=O)[C@@H](O)C(C)C)C2 [Compound 1.062] | ≥ 0.5 µM
5 | Cc1cccc(C)c1-n1nc2c(c1-c1ccc3[nH]ccc3c1)CN(S(=O)(=O)c1ccc(C(C)(C)C)cc1)C2 [Compound 1.063] | ≥ 0.5 µM
6 | Cc1cccc(C)c1-n1nc2c(c1-c1ccc3[nH]ccc3c1)CN(C(=O)c1ccc(C(C)(C)C)cc1)C2 [Compound 1.064] | ≥ 0.5 µM
7 | Cc1cccc(C)c1-n1nc2c(c1-c1ccc3[nH]ccc3c1)CN(C(=O)NC(C)(C)C)C2 [Compound 1.065] | ≥ 0.5 µM
8 | Cc1cccc(C)c1-n1nc2c(c1-c1ccc3[nH]ccc3c1)CN(C(=O)c1ccccc1)C2 [Compound 1.066] | ≥ 0.5 µM

Other lines, results leading:

Row | IC50 | SMILES
9 | ≥ 0.5 µM | Cc1cccc(C)c1-n1nc2c(c1-c1ccc3[nH]ccc3c1)CN(C(=O)OC(C)(C)C)C2=O [Compound 1.055]
10 | ≥ 0.5 µM | Cc1cccc(C)c1-n1nc2c(c1-c1ccc3[nH]ccc3c1)CN(C(=O)CCC1CCCC1)C2 [Compound 1.056]
11 | ≥ 0.5 µM | Cc1cccc(C)c1-n1nc2c(c1-c1ccc3[nH]ccc3c1)CN(C(=O)CC1CCCC1)C2 [Compound 1.057]
12 | 0.05 to 0.5 µM | Cc1cccc(C)c1-n1nc2c(c1-c1ccc3[nH]ccc3c1)CN(C(=O)C(C)C1CCCCC1)C2 (stereo not shown) [Compound 1.060]
13 | 0.05 to 0.5 µM | Cc1cccc(C)c1-n1nc2c(c1-c1ccc3[nH]ccc3c1)CN(C(=O)OC(C)(C)C)C2 [Compound 1.067]
